The record followed here is patent publication US20100035866A1, “NOVEL SUBSTITUTED-1, 1-DIOXO-BENZO[1,2,4]THIADIAZIN-3ONES, PREPARATION METHOD THEREOF, AND PHARMACEUTICAL COMPOSITION CONTAINING THE SAME” (KOREA RESEARCH INSTITUTE OF CHEMICAL TECHNOLOGY, priority 2006, published 2010).

In assay [1] the target is Human serotonin 5-HT6 receptor (Homo sapiens, UniProt P50406). Briefly: [3H]LSD binding assay on cloned 5-HT6 receptor. The note with it: IC50 (nM).
Another assay addresses T1, 5-HT1a (Homo sapiens, UniProt P08908).
T1 construct: purchased Euroscreen/BioSignal Packard Inc
T1 sequence (P08908 1-422): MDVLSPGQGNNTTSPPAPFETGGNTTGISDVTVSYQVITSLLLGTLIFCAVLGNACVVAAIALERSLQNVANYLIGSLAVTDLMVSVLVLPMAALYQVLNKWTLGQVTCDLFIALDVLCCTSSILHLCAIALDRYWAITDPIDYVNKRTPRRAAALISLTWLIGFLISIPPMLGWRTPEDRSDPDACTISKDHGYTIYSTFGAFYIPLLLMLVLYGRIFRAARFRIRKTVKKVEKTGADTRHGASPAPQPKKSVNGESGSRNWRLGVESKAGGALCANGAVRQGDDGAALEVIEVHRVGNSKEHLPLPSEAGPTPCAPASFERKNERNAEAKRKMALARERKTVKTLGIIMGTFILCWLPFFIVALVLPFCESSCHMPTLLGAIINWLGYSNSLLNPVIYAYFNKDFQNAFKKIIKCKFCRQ
The assay is described as follows: Radioligand binding, 5-HT receptor family: 5-HT1a ([3H]8-OH-DPAT). As to conditions: CHO-K1 human recombinant receptor, [3H]8-OH-DPAT 0.5 nM; read-out: Binding affinity, IC50 (nM), 5-HT1a.

The target in the next assay is T2, hD3 receptor (Homo sapiens, UniProt P35462).
T2 construct: purchased BioSignal Packard Inc., Montreal, Canada
T2 sequence (P35462 whole entry): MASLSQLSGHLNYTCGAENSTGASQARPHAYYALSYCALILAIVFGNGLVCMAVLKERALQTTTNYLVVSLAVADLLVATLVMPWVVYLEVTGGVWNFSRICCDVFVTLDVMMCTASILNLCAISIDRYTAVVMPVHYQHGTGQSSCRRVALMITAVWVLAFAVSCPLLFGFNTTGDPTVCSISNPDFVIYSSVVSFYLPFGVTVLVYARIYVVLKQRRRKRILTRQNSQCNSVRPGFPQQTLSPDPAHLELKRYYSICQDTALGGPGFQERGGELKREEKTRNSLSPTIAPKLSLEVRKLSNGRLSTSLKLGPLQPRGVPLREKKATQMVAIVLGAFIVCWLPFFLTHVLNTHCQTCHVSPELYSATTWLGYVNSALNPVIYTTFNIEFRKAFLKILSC
Briefly: Dopamine receptor family binding: D3 ([3H]spiperone). The note with it: [3H]spiperone 1 nM; read-out: Binding affinity, IC50 (nM), D3.

A further assay concerns the target T3, hD4.2 receptor (Homo sapiens, UniProt P21917, DEL265-296).
T3 construct: purchased BioSignal Packard Inc., Montreal, Canada
T3 sequence (P21917 with tags, fused parts or gaps DEL265-296): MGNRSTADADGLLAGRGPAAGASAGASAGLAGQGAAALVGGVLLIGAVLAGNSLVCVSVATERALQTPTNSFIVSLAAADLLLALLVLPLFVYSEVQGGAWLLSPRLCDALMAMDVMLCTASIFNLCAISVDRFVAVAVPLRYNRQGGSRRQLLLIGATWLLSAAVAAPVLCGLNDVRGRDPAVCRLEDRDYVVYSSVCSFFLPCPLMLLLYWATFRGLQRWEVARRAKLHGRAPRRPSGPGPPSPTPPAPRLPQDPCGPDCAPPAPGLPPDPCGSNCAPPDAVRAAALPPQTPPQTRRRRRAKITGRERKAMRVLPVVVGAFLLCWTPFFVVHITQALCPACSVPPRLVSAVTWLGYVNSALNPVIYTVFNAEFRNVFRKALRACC
The assay is described as follows: Dopamine receptor family binding: D4 ([3H]YM-09151-2). The note with it: [3H]YM-09151-2 0.06 nM; read-out: Binding affinity, IC50 (nM), D4. On the procedure:
(§1) 2-2: Binding Assays of Dopamine Receptor Family
(§2) The radioligands used were [^3H]spiperone (for hD2L and hD3 receptors, 1 nM) and [^3H] YM-09151-2 (for hD4.2 receptor, 0.06 nM). Radioligand bindings were performed by the protocols provided by the supplier of receptor membranes (BioSignal Packard Inc., Montreal, Canada). Briefly, the buffer used in D2 or D3 receptor binding assay was 50 mM Tris-HCl (pH 7.4), 10 mM MgCl2, 1 mM EDTA, or 50 mM Tris-HCl (pH 7.4), 5 mM MgCl2 5 mM EDTA, 5 mM KCl, 1.5 mM CaCl2, 120 mM NaCl, respectively. In [^3H] YM-09151-2 receptor binding assays, the buffer containing 50 mM Tris-HCl (pH 7.4), 5 mM MgCl2, 5 mM EDTA, 5 mM KCl and 1.5 mM CaCl2 was used. […] Competition binding studies were carried out with 7-8 concentrations of the test compound run in duplicate tubes, and isotherms from three assays were calculated by computerized nonlinear regression analysis (GraphPad Prism Program, San Diego, […]) to yield median inhibitory concentration (IC50) values.

The target in a further assay is T4, 5-HT2c (Homo sapiens, UniProt P28335).
T4 construct: purchased Euroscreen/BioSignal Packard Inc
T4 sequence (P28335 33-458): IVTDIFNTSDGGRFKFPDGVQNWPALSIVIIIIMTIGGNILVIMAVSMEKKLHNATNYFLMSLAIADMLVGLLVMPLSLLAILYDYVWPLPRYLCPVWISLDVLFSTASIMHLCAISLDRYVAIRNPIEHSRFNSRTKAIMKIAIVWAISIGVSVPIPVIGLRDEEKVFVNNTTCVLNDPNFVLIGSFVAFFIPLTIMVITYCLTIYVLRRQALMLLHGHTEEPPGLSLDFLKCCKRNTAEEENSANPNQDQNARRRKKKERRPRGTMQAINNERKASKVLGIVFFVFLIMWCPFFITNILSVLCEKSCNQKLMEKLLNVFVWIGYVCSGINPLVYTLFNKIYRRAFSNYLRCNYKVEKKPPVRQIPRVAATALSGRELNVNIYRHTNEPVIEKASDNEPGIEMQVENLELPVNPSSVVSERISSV
The assay is described as follows: Radioligand binding, 5-HT receptor family: 5-HT2c ([3H]Mesulergine). The note with it: CHO-K1 human recombinant receptor, [3H]Mesulergine 1 nM; read-out: Binding affinity, IC50 (nM), 5-HT2c.

The next assay deals with T5, 5-HT7 (Homo sapiens, UniProt P34969).
T5 construct: purchased Euroscreen/BioSignal Packard Inc
T5 sequence (P34969 whole entry): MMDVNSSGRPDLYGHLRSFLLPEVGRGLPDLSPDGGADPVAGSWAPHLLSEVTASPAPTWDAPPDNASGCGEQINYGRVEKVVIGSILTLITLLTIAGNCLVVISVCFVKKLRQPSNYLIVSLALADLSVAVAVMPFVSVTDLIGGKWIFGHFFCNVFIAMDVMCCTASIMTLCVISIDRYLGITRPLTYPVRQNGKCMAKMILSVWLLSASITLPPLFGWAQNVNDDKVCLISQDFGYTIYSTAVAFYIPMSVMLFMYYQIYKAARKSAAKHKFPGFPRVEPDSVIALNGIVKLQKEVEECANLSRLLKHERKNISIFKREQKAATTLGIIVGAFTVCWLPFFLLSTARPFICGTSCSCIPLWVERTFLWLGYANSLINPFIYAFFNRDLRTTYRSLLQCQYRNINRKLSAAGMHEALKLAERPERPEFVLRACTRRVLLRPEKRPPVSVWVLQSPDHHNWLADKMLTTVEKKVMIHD
The assay is described as follows: Radioligand binding, 5-HT receptor family: 5-HT7 ([3H]LSD). The note with it: CHO-K1 human recombinant receptor, [3H]LSD 3 nM; read-out: Binding affinity, IC50 (nM), 5-HT7. On the procedure: Radioligand bindings were performed according to the test method provided by the supplier of receptor membrane (Euroscreen/BioSignal Packard Inc.). The detailed assay conditions and the results were shown in the following Table 3 and Table 4, respectively.

In the next assay the target is T6, hD2L receptor (Homo sapiens, UniProt P14416).
T6 construct: purchased BioSignal Packard Inc., Montreal, Canada
T6 sequence (P14416 whole entry): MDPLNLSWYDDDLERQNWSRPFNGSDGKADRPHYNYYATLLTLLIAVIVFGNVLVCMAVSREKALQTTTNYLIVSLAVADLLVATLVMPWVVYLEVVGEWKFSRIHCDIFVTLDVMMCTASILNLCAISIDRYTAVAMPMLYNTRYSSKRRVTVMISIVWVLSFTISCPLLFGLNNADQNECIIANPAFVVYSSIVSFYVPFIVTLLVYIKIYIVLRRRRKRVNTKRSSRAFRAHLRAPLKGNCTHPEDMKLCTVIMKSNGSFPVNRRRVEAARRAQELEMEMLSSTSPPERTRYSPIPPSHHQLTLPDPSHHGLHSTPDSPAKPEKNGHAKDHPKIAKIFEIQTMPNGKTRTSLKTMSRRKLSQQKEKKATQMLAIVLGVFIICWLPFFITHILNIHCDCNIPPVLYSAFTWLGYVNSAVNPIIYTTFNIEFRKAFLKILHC
The assay is described as follows: Dopamine receptor family binding: D2 ([3H]spiperone). The note with it: [3H]spiperone 1 nM; read-out: Binding affinity, IC50 (nM), D2. How it is done:
as §1, §2

A further assay has as its target D1 (Homo sapiens, UniProt P21728). Briefly: Dopamine receptor family binding: D1. The note with it: read-out: Binding affinity, IC50 (nM), D1.
The target of the next assay is T7, 5-HT2a (Homo sapiens, UniProt P28223).
T7 construct: purchased Euroscreen/BioSignal Packard Inc
T7 sequence (P28223 whole entry): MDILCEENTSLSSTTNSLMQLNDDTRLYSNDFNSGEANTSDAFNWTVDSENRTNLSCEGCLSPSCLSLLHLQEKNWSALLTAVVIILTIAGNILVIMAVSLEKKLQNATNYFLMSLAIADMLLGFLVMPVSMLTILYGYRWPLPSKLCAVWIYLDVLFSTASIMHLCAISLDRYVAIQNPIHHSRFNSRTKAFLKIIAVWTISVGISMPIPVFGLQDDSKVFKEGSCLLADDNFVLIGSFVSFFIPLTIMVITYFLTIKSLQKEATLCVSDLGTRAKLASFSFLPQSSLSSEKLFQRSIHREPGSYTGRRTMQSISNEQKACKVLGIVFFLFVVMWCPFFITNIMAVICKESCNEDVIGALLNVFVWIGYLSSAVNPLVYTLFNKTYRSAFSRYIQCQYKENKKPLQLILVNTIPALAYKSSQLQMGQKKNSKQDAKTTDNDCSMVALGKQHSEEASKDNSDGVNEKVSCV
Briefly: Radioligand binding, 5-HT receptor family: 5-HT2a ([3H]Ketanserin). The note with it: CHO-K1 human recombinant receptor, [3H]Ketanserin 1 nM; read-out: Binding affinity, IC50 (nM), 5-HT2a.

Where [2] appears, read: Binding affinity, 5-HT6, Table 4.
Where [3] appears, read: binding affinity to the 5-HT6 receptor, Table 2, 1.87 nM [3H]LSD, cloned human receptor membranes from Sf21 cells, 37° C. 60 min.

Sequence of Human serotonin 5-HT6 receptor (P50406 whole entry): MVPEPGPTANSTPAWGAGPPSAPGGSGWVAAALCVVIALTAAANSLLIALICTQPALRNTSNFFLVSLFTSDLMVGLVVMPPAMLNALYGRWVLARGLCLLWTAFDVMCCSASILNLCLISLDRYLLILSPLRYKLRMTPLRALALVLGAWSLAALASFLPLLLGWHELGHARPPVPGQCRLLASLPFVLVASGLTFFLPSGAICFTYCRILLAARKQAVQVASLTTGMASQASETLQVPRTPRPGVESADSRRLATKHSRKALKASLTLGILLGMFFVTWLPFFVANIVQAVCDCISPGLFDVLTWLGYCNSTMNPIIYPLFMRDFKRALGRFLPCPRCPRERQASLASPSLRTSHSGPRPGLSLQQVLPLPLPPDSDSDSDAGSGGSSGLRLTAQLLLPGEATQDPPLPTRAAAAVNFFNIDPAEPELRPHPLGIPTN
Sequence of D1 (P21728 whole entry): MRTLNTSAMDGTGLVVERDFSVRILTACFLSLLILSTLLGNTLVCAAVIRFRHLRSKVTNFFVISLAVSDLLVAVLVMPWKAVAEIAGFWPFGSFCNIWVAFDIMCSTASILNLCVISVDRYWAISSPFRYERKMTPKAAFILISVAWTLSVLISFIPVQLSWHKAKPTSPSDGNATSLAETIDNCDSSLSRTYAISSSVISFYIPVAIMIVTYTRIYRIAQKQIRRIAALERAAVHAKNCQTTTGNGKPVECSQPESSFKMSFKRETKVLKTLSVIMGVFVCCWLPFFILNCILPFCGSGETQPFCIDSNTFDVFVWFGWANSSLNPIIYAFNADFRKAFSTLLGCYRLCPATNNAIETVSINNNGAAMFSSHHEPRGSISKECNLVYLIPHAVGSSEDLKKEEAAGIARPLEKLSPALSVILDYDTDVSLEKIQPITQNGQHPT

With `C[C@H](c1ccccc1)N1C(=O)N(Cc2ccccc2)c2cc(Cl)cc(N3CCNCC3)c2S1(=O)=O` [Example 58, 4-Benzyl-6-chloro-1,1-dioxo-2-[(R)-1-phenyl-ethyl]-8-piperazin-1-yl-1,4-dihydro-2H-1λ^6-benzo[1,2,4]thiadiazin-3-one], the IC50 in assay [1] (setting [2]) was 2.3 nM; in assay [1] (setting [3]) it was 2.3 nM; at 5-HT1a it was more than 10000 nM; on hD3 receptor, 398 nM; at hD4.2 receptor it was more than 10000 nM; at 5-HT2c, 424 nM. Besides, the IC50 worked out at 6390 nM at 5-HT7, 4500 nM at hD2L receptor, 1780 nM at D1 and 549 nM at 5-HT2a.
With `C[C@@H](c1ccccc1)N1C(=O)N(Cc2ccccc2)c2cc(Cl)cc(N3CCN(C)CC3)c2S1(=O)=O` [Example 26, 4-Benzyl-6-chloro-8-(4-methyl-piperazin-1-yl)-1,1-dioxo-2-[(S)-1-phenyl-ethyl]-1,4-dihydro-2H-1λ^6-benzo[1,2,4]thiadiazin-3-one], the IC50 was 2.4 nM in assay [1] (setting [2]); 2.4 nM in assay [1] (setting [3]); 589 nM at 5-HT1a; 715 nM on hD3 receptor; more than 10000 nM on hD4.2 receptor; 183 nM at 5-HT2c. Further, the 50% inhibitory concentration (IC50) on 5-HT7 came out at 8250 nM; at hD2L receptor, 6580 nM; at D1 it was 1760 nM; at 5-HT2a, 145 nM.
As to `Cc1cc(C)cc(CCCN2C(=O)N(Cc3ccccc3)c3cc(Cl)cc(N4CCN(C)CC4)c3S2(=O)=O)c1` [Example 38, 4-Benzyl-6-chloro-2-[3-(3,5-dimethyl-phenyl)-propyl]-8-(4-methyl-piperazin-1-yl)-1,1-dioxo-1,4-dihydro-2H-1λ^6-benzo[1,2,4]thiadiazin-3-one], the IC50 in assay [1] (setting [2]) is 0.6 nM; in [1] (setting [3]), 0.6 nM; on 5-HT1a it was 3420 nM; at hD3 receptor, 336 nM; at hD4.2 receptor, more than 10000 nM; at 5-HT2c, 508 nM. Moreover, the half-inhibitory concentration (IC50) on 5-HT7 is 9140 nM; at hD2L receptor, more than 10000 nM; at D1, 918 nM; at 5-HT2a it was 359 nM.
As for `C[C@@H](c1ccccc1)N1C(=O)N(Cc2ccccc2)c2cc(Cl)cc(N3CCNCC3)c2S1(=O)=O` [Example 59, 4-Benzyl-6-chloro-1,1-dioxo-2-[(S)-1-phenyl-ethyl]-8-piperazin-1-yl-1,4-dihydro-2H-1λ^6-benzo[1,2,4]thiadiazin-3-one], the IC50 in assay [1] (setting [2]) is 3 nM; in assay [1] (setting [3]) it was 3 nM; on 5-HT1a, 1400 nM; at hD3 receptor, 403 nM; on hD4.2 receptor it was more than 10000 nM; at 5-HT2c, 508 nM. The IC50 on 5-HT7 was found to be 2300 nM; at hD2L receptor, 4640 nM; at D1, 4100 nM; at 5-HT2a it was 272 nM.
On to `CN1CCN(c2cc(Cl)cc3c2S(=O)(=O)N(c2ccccc2)C(=O)N3Cc2ccccc2)CC1` [Example 27, 4-Benzyl-6-chloro-8-(4-methyl-piperazin-1-yl)-1,1-dioxo-2-phenyl-1,4-dihydro-2H-1λ^6-benzo[1,2,4]thiadiazin-3-one], for which the half-maximal inhibitory concentration (IC50) in assay [1] (setting [2]) was 3.8 nM; in assay [1] (setting [3]), 3.8 nM; on 5-HT1a, 2080 nM; at hD3 receptor, 5950 nM; on hD4.2 receptor, more than 10000 nM; at 5-HT2c, 2580 nM. Further, the IC50 at 5-HT7 is more than 10000 nM; at hD2L receptor it was more than 10000 nM; on D1 it was 2690 nM; at 5-HT2a, 4310 nM.
Turning to `COc1ccc(CN2C(=O)N(Cc3ccccc3)c3cc(Cl)cc(N4CCN(C)CC4)c3S2(=O)=O)cc1` [Example 18, 4-Benzyl-6-chloro-2-(4-methoxy-benzyl)-8-(4-methyl-piperazin-1-yl)-1,1-dioxo-1,4-dihydro-2H-1λ^6-benzo[1,2,4]thiadiazin-3-one], the IC50 in assay [1] (setting [2]) was 3.6 nM; in [1] (setting [3]), 3.6 nM; at 5-HT1a, 3420 nM; at hD3 receptor, 1220 nM; at hD4.2 receptor, more than 10000 nM; on 5-HT2c, 990 nM. Also, the IC50 was more than 10000 nM at 5-HT7, 6580 nM at hD2L receptor, more than 10000 nM on D1 and 563 nM at 5-HT2a.
In the case of `COc1ccc(CN2C(=O)N(Cc3ccccc3)c3cc(Cl)cc(N4CCNCC4)c3S2(=O)=O)cc1` [Example 53, 4-Benzyl-6-chloro-2-(4-methoxy-benzyl)-1,1-dioxo-8-piperazin-1-yl-1,4-dihydro-2H-1λ^6-benzo[1,2,4]thiadiazin-3-one], the 50% inhibitory concentration (IC50) is 11.8 nM in assay [1] (setting [2]); 11.8 nM in assay [1] (setting [3]); 3260 nM on 5-HT1a; 844 nM at hD3 receptor; more than 10000 nM at hD4.2 receptor; 961 nM at 5-HT2c. The IC50 at 5-HT7 is 6580 nM; at hD2L receptor, 2440 nM; at D1, more than 10000 nM; on 5-HT2a it was 651 nM.
Take `COc1cccc(N2C(=O)N(Cc3ccccc3)c3cc(Cl)cc(N4CCNCC4)c3S2(=O)=O)c1` [Example 62, 4-Benzyl-6-chloro-2-(3-methoxy-phenyl)-1,1-dioxo-8-piperazin-1-yl-1,4-dihydro-2H-1λ^6-benzo[1,2,4]thiadiazin-3-one]: the IC50 is 10.2 nM in assay [1] (setting [2]); 10.2 nM in assay [1] (setting [3]); 926 nM at 5-HT1a; 2370 nM at hD3 receptor; more than 10000 nM at hD4.2 receptor; 4960 nM on 5-HT2c. Also, the IC50 on 5-HT7 was more than 10000 nM; on hD2L receptor it was more than 10000 nM; at D1, 5590 nM; on 5-HT2a, 3170 nM.
